# Laboratory results reported in patent US9949369B2, “Cyanate ester compound, curable resin composition containing the same, and hardened product thereof” (MITSUBISHI GAS CHEMICAL COMPANY, INC., priority 2013, dated 2018).
# Experiment: Solubility of the cyanate ester monomer in methyl ethyl ketone (MEK)
# Assay type: physicochemical
# Details: 25° C.
row,SMILES,amount that could be dissolved in methyl ethyl ketone (MEK)
1,"CC12CC3(C)CC(c4ccc(OC#N)cc4)(C1)CC(c1ccc(OC#N)cc1)(C2)C3 [AMTCN, 1,3-Bis(4-Cyanatophenyl)-5,7-Dimethyladamantane]",≥ 50 % by mass
2,"Cc1cc(C23CC4(C)CC(C)(C2)CC(c2ccc(OC#N)c(C)c2)(C4)C3)ccc1OC#N [AMTcCN, 1,3-Bis(3-Methyl-4-Cyanatophenyl)-5,7-Dimethyladamantane]",≥ 50 % by mass
